# Experimental data from US20190053492A1, “SUBSTITUTED PYRIDINE COMPOUNDS AS PESTICIDES” (Bayer CropScience Aktiengesellschaft, priority 2016, published 2019).
# Where two headings read alike, the source gives them in different places.
# Key:
# [1] = log P by HPLC on reversed-phase column (C 18), EEC Directive 79/831 Annex V.A8; format: physicochemical; conditions: 55° C.; for LOGP_HCOOH: log P (HCOOH); for chromatographic logP: reversed-phase HPLC column (C 18)
# Method: Temperature: 55° C. […] Called log P (HCOOH) in the table. […] Called log P (neutral) in the table.
# Phaedon cochleariae = Phaedon cochleariae spray test; format: in vivo; conditions: after 7 days, Chinese cabbage leaf discs; for pest or weed control at 500 g/ha / pest or weed control at 100 g/ha: Phaedon cochleariae, foliar, 168 h, read-out: efficacy (beetle larvae killed)
# Method: Phaedon cochleariae—Spray Test
# (§1) Solvent: 78.0 parts by weight of acetone • • 1.5 parts by weight of dimethylformamide
# (§2) Emulsifier: alkylaryl polyglycol ether
# (§3) To produce a suitable active ingredient formulation, 1 part by weight of active ingredient is dissolved with the specified parts by weight of solvent and made up with water containing an emulsifier concentration of 1000 ppm until the desired concentration is attained. To produce further test concentrations, the formulation is diluted with emulsifier-containing water.
# Discs of Chinese cabbage leaves (Brassica pekinensis) are sprayed with an active ingredient formulation of the desired concentration and, after drying, populated with larvae of the mustard beetle (Phaedon cochleariae).
# After 7 days, the efficacy in % is determined. 100% means that all the beetle larvae have been killed; 0% means that no beetle larvae have been killed.
# Spodoptera frugiperda = Spodoptera frugiperda spray test; format: in vivo; conditions: after 7 days, maize leaf discs; for pest or weed control at 500 g/ha / pest or weed control at 100 g/ha: Spodoptera frugiperda, foliar, 168 h, read-out: efficacy (caterpillars killed)
# Method: Spodoptera frugiperda—Spray Test
# as §1, §2, §3
# Leaf discs of maize (Zea mays) are sprayed with an active ingredient formulation of the desired concentration and, after drying, populated with caterpillars of the armyworm (Spodoptera frugiperda).
# After 7 days, the efficacy in % is determined. 100% means that all the caterpillars have been killed; 0% means that no caterpillar has been killed.
# [2] = acidic range at pH 2.7, 0.1% aqueous formic acid and acetonitrile, HPLC on reversed-phase column (C 18)
# [3] = log P, neutral range, HPLC on reversed-phase column (C 18)
# [4] = acidic range pH 2.7, 0.1% aqueous formic acid and acetonitrile, reversed-phase column (C 18)
# [5] = log P (neutral), HPLC reversed-phase column (C 18)
# [6] = pH 2.7, LC-MS acidic range, pH 2.7, 0.1% formic acid/acetonitrile, read-out: log P (acidic) / log P (HCOOH)
# [7] = pH 7.8, LC-MS neutral range, pH 7.8, ammonium hydrogencarbonate/acetonitrile, read-out: log P (neutral)
"LOGP_HCOOH [1, 2]","LOGP_NEUTRAL [1, 3]","LOGP_HCOOH [1, 4]",SMILES,efficacy (beetle larvae killed) (Phaedon cochleariae; application rate 500 g/ha) [%],also measured
–,–,3.50,"CC(C)ONC(=O)c1cc(-c2ccc(OC(F)(F)F)cc2)cc(NC(=O)C2CC2)n1 [Example I-237, 6-[(Cyclopropylcarbonyl)amino]-N-isopropoxy-4-[4-(trifluoromethoxy)phenyl]pyridine-2-carboxamide]",–,"LOGP_NEUTRAL [1, 5]: 3.45; chromatographic logP [1, 6]: 3.5; chromatographic logP [1, 7]: 3.45; pest or weed control at 500 g/ha (Phaedon cochleariae; application rate 500 g/ha): 83%; pest or weed control at 500 g/ha (Spodoptera frugiperda; application rate 500 g/ha): 100%"
–,–,4.62,"O=C(NC(=O)C1CC1)c1cc(-c2ccc(C(F)(F)C(F)(F)F)c(F)c2)cc(NC(=O)C2CC2)n1 [Example I-264, N-(Cyclopropylcarbonyl)-6-[(cyclopropylcarbonyl)amino]-4-[3-fluoro-4-(pentafluoroethyl)-phenyl]pyridine-2-carboxamide]",–,"LOGP_NEUTRAL [1, 5]: 4.53; chromatographic logP [1, 6]: 4.62; chromatographic logP [1, 7]: 4.53; pest or weed control at 100 g/ha (Phaedon cochleariae; application rate 100 g/ha): 100%; pest or weed control at 500 g/ha (Phaedon cochleariae; application rate 500 g/ha): 100%; pest or weed control at 100 g/ha (Spodoptera frugiperda; application rate 100 g/ha): 100%; pest or weed control at 500 g/ha (Spodoptera frugiperda; application rate 500 g/ha): 100%"
–,–,4.17,N#Cc1ccc(CNC(=O)c2cc(-c3ccc(C(F)(F)C(F)(F)F)c(F)c3F)cc(NC(=O)C3CC3)n2)cc1 [Example I-272],83,–
4.32,4.24,–,N#Cc1ccc(CNC(=O)c2cc(-c3ccc(OC(F)(F)F)c(Cl)c3)cc(NC(=O)C3CC3)n2)cc1 [Example I-230],–,efficacy (beetle larvae killed) (Phaedon cochleariae; application rate 100 g/ha): 83%
3.39,3.34,–,N#Cc1ccc(CNC(=O)c2cc(-c3ccc(C(F)F)c(F)c3)cc(NC(=O)C3CC3)n2)cc1 [Example I-222],100,efficacy (beetle larvae killed) (Phaedon cochleariae; application rate 100 g/ha): 100%
–,–,3.59,O=C(NOCC1CC1)c1cc(-c2ccc(OC(F)(F)F)cc2)cc(NC(=O)C2CC2)n1 [Example I-236],100,"LOGP_NEUTRAL [1, 5]: 3.50"
–,–,3.13,N#CCCCONC(=O)c1cc(-c2ccc(OC(F)(F)F)cc2)cc(NC(=O)C2CC2)n1 [Example I-238],83,–
–,–,2.97,CONC(=O)c1cc(-c2ccc(OC(F)(F)F)cc2)cc(NC(=O)C2CC2)n1 [Example I-234],100,"LOGP_NEUTRAL [1, 5]: 2.89"
4.23,–,–,O=C(NC1(c2ccc([N+](=O)[O-])cc2)CC1)c1cc(-c2ccc(OC(F)(F)F)cc2)cc(NC(=O)C2CC2)n1 [Example I-229],–,efficacy (caterpillars killed) (Spodoptera frugiperda; application rate 500 g/ha): 100%
–,–,4.68,N#Cc1ccc(CNC(=O)c2cc(-c3ccc(OC(F)(F)F)cc3)cc(NC(=O)Cc3ccc(C(F)(F)F)cc3)n2)cc1 [Example I-260],–,"LOGP_NEUTRAL [1, 5]: 4.66; efficacy (caterpillars killed) (Spodoptera frugiperda; application rate 100 g/ha): 100%; efficacy (caterpillars killed) (Spodoptera frugiperda; application rate 500 g/ha): 100%"

# Second part, the molecule before the results:
SMILES,"LOGP_HCOOH [1, 2]","LOGP_NEUTRAL [1, 3]","LOGP_HCOOH [1, 4]",efficacy (beetle larvae killed) (Phaedon cochleariae; application rate 500 g/ha) [%],also measured
O=C(N[C@H]1CC[C@@H](C(F)(F)F)CC1)c1cc(-c2ccc(OC(F)(F)F)cc2)cc(NC(=O)C2CC2)n1 [Example I-145],4.90,4.72,–,100,efficacy (beetle larvae killed) (Phaedon cochleariae; application rate 100 g/ha): 100%; efficacy (caterpillars killed) (Spodoptera frugiperda; application rate 100 g/ha): 100%; efficacy (caterpillars killed) (Spodoptera frugiperda; application rate 500 g/ha): 100%
N#Cc1ccc(CNC(=O)c2cc(-c3ccc(S(=O)(=O)C(F)(F)F)cc3)cc(NC(=O)C3CC3)n2)cn1 [Example I-097],–,3.11,3.24,100,–
"N#Cc1ccc(CNC(=O)c2cc(-c3ccc(Cl)cc3)cc(NC(=O)C3CC3)n2)cc1 [Example I-020, 4-(4-Chlorophenyl)-N-(4-cyanobenzyl)-6-[(cyclopropylcarbonyl)amino]pyridine-2-carboxamide]",–,3.54,–,–,"chromatographic logP ([1]; pH 2.7, log P (HCOOH), acidic range pH 2.7, 0.1% aqueous formic acid and acetonitrile, reversed-phase column (C 18), read-out: LOGP_HCOOH): 3.6; chromatographic logP [1, 7]: 3.54; pest or weed control at 500 g/ha (Phaedon cochleariae; application rate 500 g/ha): 100%; pest or weed control at 500 g/ha (Spodoptera frugiperda; application rate 500 g/ha): 100%"
CC(C)C(=O)Nc1cc(-c2ccc(C(F)(F)F)cc2)cc(C(=O)NCc2c(F)cc(C#N)cc2F)n1 [Example I-069],–,4.05,4.16,83,–
N#Cc1ccc(CNC(=O)c2cc(-c3ccc(SC(F)F)cc3)cc(NC(=O)C3CC3)n2)cc1 [Example I-180],3.55,3.46,–,100,efficacy (beetle larvae killed) (Phaedon cochleariae; application rate 100 g/ha): 100%
N#Cc1ccc(CNC(=O)c2cc(-c3ccc(OC(F)(F)F)cc3)cc(NC(=O)C3(C#N)CC3)n2)cc1 [Example I-210],4.04,3.88,–,83,efficacy (beetle larvae killed) (Phaedon cochleariae; application rate 100 g/ha): 83%
O=C(NCc1ccc(Cl)nc1)c1cc(-c2ccc(Cl)cc2)cc(NC(=O)C2CC2)n1 [Example I-024],–,3.47,3.53,100,–
N#Cc1ccc(CNC(=O)c2cc(-c3ccc(I)cc3)cc(NC(=O)C3CC3)n2)cc1 [Example I-050],–,3.83,3.87,83,–
O=C(NCc1ccc([N+](=O)[O-])cc1)c1cc(-c2ccc(C(F)(F)F)cc2)cc(NC(=O)C2CC2)n1 [Example I-084],–,3.85,3.98,100,–
O=C(NCc1ccc([N+](=O)[O-])cc1)c1cc(-c2ccc(C(F)(F)C(F)(F)F)c(F)c2)cc(NC(=O)C2CC2)n1 [Example I-209],4.34,4.33,–,–,efficacy (beetle larvae killed) (Phaedon cochleariae; application rate 100 g/ha): 100%
"COC(=O)N(Cc1ccc(C#N)cc1)C(=O)c1cc(-c2ccc(OC(F)(F)F)cc2)cc(NC(=O)C2CC2)n1 [Example I-231, Methyl (4-cyanobenzyl)({6-[(cyclopropylcarbonyl)amino]-4-[4-(trifluoromethoxy)phenyl]pyridin-2-yl}carbonyl)carbamate]",4.41,4.43,–,–,"chromatographic logP [1, 6]: 4.41; chromatographic logP [1, 7]: 4.43; pest or weed control at 100 g/ha (Spodoptera frugiperda; application rate 100 g/ha): 100%; pest or weed control at 500 g/ha (Spodoptera frugiperda; application rate 500 g/ha): 100%"
"N#Cc1ccc(CNC(=O)c2cc(-n3ccc(C(F)(F)C(F)(F)F)n3)cc(NC(=O)C3CC3)n2)cc1 [Example I-188, N-(4-Cyanobenzyl)-6-[(cyclopropylcarbonyl)amino]-4-[3-(pentafluoroethyl)-1H-pyrazol-1-yl]pyridine-2-carboxamide]",3.70,3.57,–,–,"chromatographic logP [1, 6]: 3.7; chromatographic logP [1, 7]: 3.57; pest or weed control at 100 g/ha (Phaedon cochleariae; application rate 100 g/ha): 100%; pest or weed control at 500 g/ha (Phaedon cochleariae; application rate 500 g/ha): 100%"
COC(=O)C(C)NC(=O)c1cc(-c2ccc(OC(F)(F)F)cc2)cc(NC(=O)C2CC2)n1 (stereo not drawn) [Example I-136],3.68,–,–,–,efficacy (caterpillars killed) (Spodoptera frugiperda; application rate 500 g/ha): 100%
NS(=O)(=O)c1ccc(CNC(=O)c2cc(-c3ccc(OC(F)(F)F)cc3)cc(NC(=O)C3CC3)n2)cc1 [Example I-186],3.17,3.00,–,100,–
CC(C)C(=O)Nc1cc(-c2ccc(C(F)(F)F)cc2)cc(C(=O)NCc2ccc(Cl)nc2)n1 [Example I-014],–,3.81,3.88,–,efficacy (caterpillars killed) (Spodoptera frugiperda; application rate 500 g/ha): 80%
N#Cc1ccc(CNC(=O)c2cc(-c3ccc(F)cc3)cc(NC(=O)C3CC3)n2)cc1 [Example I-002],–,–,3.24,100,–
